The values that follow come from patent EP0405506A1, “Tetrapeptide type-B CCK receptor ligands” (ABBOTT LABORATORIES, priority 1989, dated 1991).

Like-named read-outs stand apart in the source and are kept apart here. Square brackets hold non-standard residues; d marks the D form. Peptide text beside a SMILES is read from it. * marks the point of attachment. Ala(1H-tetrazol-5-yl) = N[C@@H](Cc1nnn[nH]1)C(=O)O; 1Nal = N[C@@H](Cc1cccc2ccccc12)C(=O)O; 2Nal = N[C@@H](Cc1ccc2ccccc2c1)C(=O)O; Tic = O=C(O)[C@@H]1Cc2ccccc2CN1; Cha = N[C@@H](CC1CCCCC1)C(=O)O; NMeL = CN[C@@H](CC(C)C)C(=O)O; Cbz = O=C(OCc1ccccc1)*; Boc = CC(C)(C)OC(=O)*

Experiment [1] has as its target T1, CCK receptors (Cavia porcellus, UniProt Q63931).
T1 construct: Cortical and pancreatic membranes were prepared as described; from tissue; host or cells: guinea pig pancreas membranes
T1 sequence (Q63931 1-430): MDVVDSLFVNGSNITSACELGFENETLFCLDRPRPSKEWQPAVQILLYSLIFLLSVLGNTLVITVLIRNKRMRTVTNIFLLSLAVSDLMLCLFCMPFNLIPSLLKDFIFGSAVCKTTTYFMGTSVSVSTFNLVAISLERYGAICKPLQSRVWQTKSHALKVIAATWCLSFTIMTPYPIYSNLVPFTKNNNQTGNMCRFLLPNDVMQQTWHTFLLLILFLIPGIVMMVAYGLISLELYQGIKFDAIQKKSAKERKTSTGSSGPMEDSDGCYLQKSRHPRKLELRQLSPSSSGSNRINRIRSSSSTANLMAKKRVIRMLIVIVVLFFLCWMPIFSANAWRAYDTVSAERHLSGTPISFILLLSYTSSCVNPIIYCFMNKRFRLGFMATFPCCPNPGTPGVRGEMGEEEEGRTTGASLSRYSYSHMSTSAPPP
Briefly: Radioligand binding ([125I]Bolton-Hunter CCK8) in guinea pig pancreatic membranes.
Protocol: EGTA, HEPES, BSA were purchased from Sigma Chemical Co. (St. Louis, MO). […] Male ginea pigs, 250 to 325 g, were obtained from Scientific Small Animal Laboratory and Farm (Arlington Heights, IL). Collangenase, code CLSPA was purchased from Worthington (Frehold, NJ).
The final BSA concentration was 0.1%. The cortical tissues were incubated at 30°C for 150 min. and pancreatic tissues were incubated at 37°C for 150 min. Incubations were terminated by filtration using Skatron Cell Harvester and SS32 microfiber filter mats. […] IC₅₀s were determined from the Hill analysis.

Experiment [2] has as its target T2, cortical CCK receptor (Cavia porcellus, UniProt H0VZC5).
T2 construct: Cortical and pancreatic membranes were prepared as described; from tissue; host or cells: guinea pig cerebral cortex membranes
T2 sequence (H0VZC5 1-426): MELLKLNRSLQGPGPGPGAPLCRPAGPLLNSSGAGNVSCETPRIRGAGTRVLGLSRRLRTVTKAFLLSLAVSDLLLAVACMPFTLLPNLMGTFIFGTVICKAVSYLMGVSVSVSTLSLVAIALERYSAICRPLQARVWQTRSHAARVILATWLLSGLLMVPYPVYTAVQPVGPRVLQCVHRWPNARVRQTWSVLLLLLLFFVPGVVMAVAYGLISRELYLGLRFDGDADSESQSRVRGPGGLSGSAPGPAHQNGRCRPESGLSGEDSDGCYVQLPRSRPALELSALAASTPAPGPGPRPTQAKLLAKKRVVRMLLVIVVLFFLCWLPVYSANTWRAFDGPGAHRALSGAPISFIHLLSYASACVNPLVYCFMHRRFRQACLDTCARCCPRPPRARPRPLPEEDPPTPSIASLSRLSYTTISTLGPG
Briefly: Radioligand binding ([125I]Bolton-Hunter CCK8) in guinea pig cerebral cortical membranes. The note with it: displacement of [125I]BH-CCK8, cortical membranes, 30°C for 150 min, Hill analysis; read-out: IC₅₀ (nM) cortex. The source says:
Protocol for Radioligand Binding Experiments in Guinea Pig Cerebral Cortical and Pancreatic Membrance Preparations
CCK8 (Asp-Tyr(SO₃H)-Met-Gly-Trp-Met-Asp-Phe-NH₂), bestatin and phosphormaidon were purchased from Peptide International (Louisville, KY). EGTA, HEPES, BSA were purchased from Sigma Chemical Co. (St. Louis, MO). [¹²⁵I]-Bolton-Hunter CCK8 (BH-CCK8) (specific activity, 2200 Ci, mmol) was obtained from New England Nuclear (Boston, MA). Male ginea pigs, 250 to 325 g, were obtained from Scientific Small Animal Laboratory and Farm (Arlington Heights, IL). Collangenase, code CLSPA was purchased from Worthington (Frehold, NJ).
Cortical and pancreatic membranes were prepared as described (Lin and Miller; J. Pharmacol. Exp. Ther. 232, 775-780, 1985). In brief, pancreas and cortex were removed and rinsed with ice-cold saline. Visible fat and connective tissues were removed from the pancreas. Tissues were weighed and homogenized in approximately 25 mL of ice-cold 50 mM Tris-HCl buffer, pH 7.4 at 4°C with a Brinkman Polytron for 30 sec, setting 7. The homogenates were centrifuged for 10 min at 1075 x g and the pellet was discarded. The supernantants were saved and centrifuged at 38,730 x g for 20 min. The resultant pellets were rehomogenized in 25 mL of 50 mM Tris-HCl buffer with a Teflon-glass homogenizer, 5 up and down strokes. The homogenates were centrifuged again at 38,730 x g for 20 min. The pellets were then resuspended in 20 mM HEPES, containing 1 mM EGTA, 118 mM NaCl, 4.7 mM KCl, 5mM MgCl₂, 100 uM bestatin, 3 uM phosphoramidon, pH 7.4 at 22°C with a Teflon-glass homogenizer, 15 up and down strokes. The resuspension volume used for the cortex was 15 mL per g of original wet weight and 60 mL per g for pancreas.
[¹²⁵I]Bolton-Hunter CCK8 and test compounds were diluted with HEPES-EGTA-salt buffer (see above) containing 0.5% bovine serum albumin (BSA). To 1 mL Skatron polystyrene tubes were added 25 uL of test compounds, 25 uL of [¹²⁵I]BH-CCK8 and 200 uL of membrane suspension. The final BSA concentration was 0.1%. The cortical tissues were incubated at 30°C for 150 min. and pancreatic tissues were incubated at 37°C for 150 min. Incubations were terminated by filtration using Skatron Cell Harvester and SS32 microfiber filter mats. The specific binding of [¹²⁵I]BH-CCK8, defined as the difference betwen binding in the absence and presence of 1 uM CCK8, was 85-90% of total binding in cortex and 90-95% in pancreas. IC₅₀s were determined from the Hill analysis.
In general terms: In a radioligand displacement assay an active substance lowers the binding of a labelled ligand.

The target in experiment [3] is T3, CCK-B receptors on small cell lung cancer cell lines (Homo sapiens, UniProt P32239).
T3 construct: endogenous in cells; host or cells: NCI-H345 and H209 small cell lung cancer cells
T3 sequence (P32239 1-447): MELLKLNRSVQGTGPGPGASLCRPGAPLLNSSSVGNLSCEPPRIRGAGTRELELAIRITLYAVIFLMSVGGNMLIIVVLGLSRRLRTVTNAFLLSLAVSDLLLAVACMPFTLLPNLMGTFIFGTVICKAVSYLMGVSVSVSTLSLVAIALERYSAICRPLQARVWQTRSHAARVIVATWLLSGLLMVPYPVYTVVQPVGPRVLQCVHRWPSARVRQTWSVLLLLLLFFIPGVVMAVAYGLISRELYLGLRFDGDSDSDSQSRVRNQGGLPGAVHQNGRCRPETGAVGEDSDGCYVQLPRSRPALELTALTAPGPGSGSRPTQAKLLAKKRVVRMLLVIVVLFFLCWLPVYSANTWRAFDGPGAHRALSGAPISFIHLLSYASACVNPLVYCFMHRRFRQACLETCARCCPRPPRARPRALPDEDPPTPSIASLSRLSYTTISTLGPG
Kind of experiment: Measurement of [Ca++]i changes in NCI-H345 and H209 cell lines (indo-1 fluorescence). The note with it: read-out: Intrinsic Activity Relative to CCK-8. The class given is cell-based.
Protocol: Protocol for Measuring [Ca++]i Changes in NCI-H345 and H209 Cell Lines
Culture conditions were as described (D.G. Yoder, T.W. Moody, Peptides, 8, 103 (1987), except that the medium was modified to RPMI 1640 with 2.5% fetal bovine serum (heat inactivated), 5µg/l sodium selenite, 5 mg/l human transferrin, 5 mg/l insulin, penicillin (100 U/l) and streptomycin (100 µg/l). To measure intracellular Ca²⁺, cells were loaded with 1 µM of indo-1,AM, for 60 min at 37°C. The cells were centrifuged at 750 x g for 5 min and resuspended in 40 mL Buffer F (Dulbecco's phosphate buffered saline containing 0.1% glucose, pH 7.4). The cells were counted then twice washed by centrifugation. The final pellet was resuspended (approximately 1 x 10⁶ cells/mL) in Buffer F. The cells were thermally equilibrated in a thermostated cuvette (37°C) for 2 min prior to base-line fluorescence measurement. Fluorescence measurements were made with an SLM 8000C spectrofluorimeter equipped with magnetic microstirrer and polarizing filters. Measurements with indo-1-loaded cells were obtained at excitation wavelength of 350 nm and emission wavelength of 480 and 405 nM and the time interval for the measurements was 0.5 sec.

Setting [4] is: displacement of [125I]BH-CCK8, pancreatic membranes, 37°C for 150 min, Hill analysis, read-out: IC₅₀ (uM) pancreas.

In the case of `CC(C)C[C@H](NC(=O)[C@H](Cc1c[nH]c2ccccc12)NC(=O)OC(C)(C)C)C(=O)N[C@@H](CC(=O)O)C(=O)N[C@@H](Cc1cccc2ccccc12)C(N)=O` [Example 45, Boc-Trp-Leu-Asp-α-Nal-NH₂] (Boc-WLD[1Nal]-NH2), the IC50 in experiment [1] (setting [4]) was 1.7 µM; in experiment [2] it was 12 nM.

Regarding `CC(C)C[C@H](NC(=O)[C@H](Cc1c[nH]c2ccccc12)NC(=O)OC(C)(C)C)C(=O)N[C@@H](CC(=O)O)C(=O)N[C@@H](Cc1ccc2ccccc2c1)C(N)=O` [Example 44, Boc-Trp-Leu-Asp-β-Nal-NH₂] (Boc-WLD[2Nal]-NH2), in experiment [3], the Emax came to 104%.

As for `CC(C)C[C@H](NC(=O)[C@H](Cc1c[nH]c2ccccc12)NC(=O)OC(C)(C)C)C(=O)N[C@@H](CC(=O)O)C(=O)N1Cc2ccccc2C[C@H]1C(N)=O` [Example 2, Boc-Trp-Leu-Asp-Tiq-NH₂] (Boc-WLD[Tic]-NH2), the IC50 in experiment [1] amounted to 19 µM; in experiment [2] it was 37 nM.

Turning to `CC(C)C[C@@H](C(=O)N[C@@H](CC(=O)O)C(=O)N[C@@H](Cc1ccccc1)C(N)=O)N(C)C(=O)[C@H](Cc1c[nH]c2ccccc12)NC(=O)OCc1ccccc1` [Example 15, Cbz-Trp-(NMe)Leu-Asp-Phe-NH₂] (Cbz-W[NMeL]DF-NH2), the values for the IC50 in experiment [1] (setting [4]) and in experiment [2] were 1 µM and 5 nM, respectively.

`CCC[C@H]1CCN(C(=O)[C@H](Cc2c[nH]c3ccccc23)NC(=O)OC(C)(C)C)[C@@H]1C(=O)N[C@@H](CC(=O)O)C(=O)N[C@@H](Cc1c[nH]c2ccccc12)C(N)=O` [Example 54, Boc-Trp-Tpp-Asp-Trp-NH₂]: the figures for the IC50 in experiment [1] (setting [4]) and in experiment [2] were 3.7 µM and 5 nM, respectively.

As for `CC(C)C[C@H](NC(=O)[C@H](Cc1c[nH]c2ccccc12)NC(=O)OC(C)(C)C)C(=O)N[C@@H](Cc1nnn[nH]1)C(=O)N[C@@H](Cc1ccccc1)C(N)=O` [Example 9, Boc-Trp-Leu-[β-1(2)H-tetrazol-5-yl]-L-alanyl-Phe-NH₂] (Boc-WL[Ala(1H-tetrazol-5-yl)]F-NH2), the values for the IC50 in experiment [1] (setting [4]) and in experiment [2] were greater than 1 µM and 13 nM, respectively.

Consider `CC(C)C[C@H](NC(=O)[C@H](Cc1c[nH]c2ccccc12)NC(=O)OC(C)(C)C)C(=O)N[C@@H](CC(=O)O)C(=O)N[C@@H](CC1CCCCC1)C(N)=O` [Example 43, Boc-Trp-Leu-Asp-Cha-NH₂] (Boc-WLD[Cha]-NH2), for which the figures for the IC50 in experiment [1] (setting [4]) and in experiment [2] were 11 µM and 170 nM, respectively.

Regarding `CC(C)C[C@H](NC(=O)[C@H](Cc1c[nH]c2ccccc12)NC(=O)OC(C)(C)C)C(=O)N[C@@H](CC(=O)O)C(=O)N[C@@H](Cc1c[nH]c2ccccc12)C(N)=O` [Example 42, Boc-Trp-Leu-Asp-Trp-NH₂] (Boc-WLDW-NH2), the IC50 in experiment [1] (setting [4]) turned out to be 3.8 µM; in experiment [2], 13 nM.

In the case of `CCC[C@H]1CCN(C(=O)[C@@H]2Cc3c[nH]c4cccc(c34)CC(=O)N2)[C@@H]1C(=O)N[C@@H](CC(=O)O)C(=O)N[C@@H](Cc1cccc2ccccc12)C(N)=O` [Example 57, Ctp-Tpp-Asp-α-Nal-NH₂], the figures for the IC50 in experiment [1] (setting [4]) and in experiment [2] were 1.4 µM and 0.4 nM, respectively. For the same compound, the Emax in experiment [3] was 109%.

`CCC[C@H]1CCN(C(=O)[C@H](Cc2c[nH]c3ccccc23)NC(=O)OC(C)(C)C)[C@@H]1C(=O)N[C@@H](CC(=O)O)C(=O)N[C@@H](Cc1ccccc1)C(N)=O` [Example 47, Boc-Trp-Tpp-Asp-Phe-NH₂]: the IC50 came to 89 µM in experiment [1] (setting [4]) and 1.2 nM in experiment [2].

On to `CCC[C@H]1CCN(C(=O)[C@@H]2Cc3c[nH]c4cccc(c34)CC(=O)N2)[C@@H]1C(=O)N[C@@H](CC(=O)O)C(=O)N[C@@H](Cc1ccc2ccccc2c1)C(N)=O` [Example 58, Ctp-Tpp-Asp-β-Nal-NH₂], for which the IC50 in experiment [1] (setting [4]) came to 11 µM; in experiment [2] it was 1.9 nM. For the same compound, in experiment [3], the Emax was 100%.

Consider `CC(C)C[C@H](NC(=O)[C@@H]1Cc2c[nH]c3cccc(c23)CC(=O)N1)C(=O)N[C@@H](CC(=O)O)C(=O)N[C@@H](Cc1ccccc1)C(N)=O` [Example 1, CTP-Leu-Asp-Phe-NH₂], for which the IC50 came to 2.7 µM in experiment [1] (setting [4]) and 2.5 nM in experiment [2].

In the case of `CC(C)C[C@H](NC(=O)[C@@H]1Cc2c[nH]c3cccc(c23)CC(=O)N1)C(=O)N[C@@H](CC(=O)O)C(=O)NC(=Cc1ccccc1)C(N)=O` [Example 23, Ctp-Leu-Asp-(dehydro)Phe-NH₂], the IC50 in experiment [1] (setting [4]) was greater than 10 µM; in experiment [2] it was 16 nM.

As to `CC(C)C[C@H](NC(=O)[C@@H]1Cc2c[nH]c3cccc(c23)CC(=O)N1)C(=O)N[C@@H](CC(=O)O)C(=O)N(C)[C@@H](Cc1ccccc1)C(N)=O` [Example 6, Ctp-Leu-Asp-(NMe)Phe-NH₂], in experiment [3], the Emax was found to be 96%.

On to `CC(C)C[C@H](NC(=O)[C@H](Cc1c[nH]c2ccccc12)NC(=O)OC(C)(C)C)C(=O)N[C@@H](CC(=O)O)C(=O)NC(=Cc1ccccc1)C(N)=O` [Example 19, Boc-Trp-Leu-Asp-(dehydro)Phe-NH₂], for which the IC50 in experiment [1] (setting [4]) stood at 1.8 µM; in experiment [2], 54 nM.

With `CCC[C@H]1CCN(C(=O)[C@@H]2Cc3c[nH]c4cccc(c34)CC(=O)N2)[C@@H]1C(=O)N[C@@H](CC(=O)O)C(=O)N(C)[C@@H](Cc1ccccc1)C(N)=O` [Example 52, Ctp-Tpp-Asp-(NMe)Phe-NH₂], the IC50 in experiment [1] (setting [4]) came out at 3.5 µM; in experiment [2] it was 2.6 nM. The Emax in experiment [3] is 100%.

With `CCC[C@H]1CCN(C(=O)[C@@H]2Cc3c[nH]c4cccc(c34)CC(=O)N2)[C@@H]1C(=O)N[C@@H](CC(=O)O)C(=O)N[C@@H](CC1CCCCC1)C(N)=O` [Example 59, Ctp-Tpp-Asp-Cha-NH₂], the IC50 in experiment [1] (setting [4]) amounted to 4.3 µM; in experiment [2], 0.9 nM.

`CC(C)C[C@H](NC(=O)[C@H](Cc1ccc2ccccc2c1)NC(=O)OC(C)(C)C)C(=O)N[C@@H](CC(=O)O)C(=O)N[C@@H](Cc1ccccc1)C(N)=O` [Example 50, Boc-β-Nal-Leu-Asp-Phe-NH₂] (Boc-[2Nal]LDF-NH2): the IC50 is 5 µM in experiment [1] (setting [4]) and 27 nM in experiment [2].
